The values below come from patent publication US20120309744A1, “DOSING REGIMENS AND METHODS FOR TREATING OR PREVENTING HEPATOCELLULAR CARCINOMA” (NBI Pharmaceuticals, Inc., priority 2011, published 2012).

In one assay the test system is MMP-7. In words: Suppression of TPA-induced MMP expression. Format: cell-based. The source says:
(§1) Since MK4 inhibits MMP-1, -3 and -7 mRNA expression, the ability of MK4 to suppress TPA-induced MMP expression will be investigated. […] MK4 also suppresses the MMP-1 and -3 protein expression induced by TPA.

The subject of a further assay is MMP-3. In words: Suppression of TPA-induced MMP expression. Format: cell-based.
Excerpt: as §1

For a further assay, the system named is MMP-1. In words: Suppression of TPA-induced MMP expression. Format: cell-based.
Excerpt: as §1

The test system of assay [1] is hepatocellular carcinoma. In words: Subject with hepatocellular carcinoma given oral MK4 (induction then maintenance). Format: in vivo, human. The procedure: A subject suffering from hepatocellular carcinoma is administered oral MK4 (90 mg daily once a day). After the administration of MK4 for six weeks, tumor sizes will decrease and the diameter of the main tumor is smaller. […] This case report provides compelling evidence that MK4 may be useful in the treatment of HCC.

Assay [2] concerns hepatocellular carcinoma. In words: Randomized study of oral MK4 versus no MK4 in patients with hepatocellular carcinoma. In kind it is in vivo, human. As for the experimental part:
Patients with hepatocellular carcinoma are randomized to receive oral MK4 (90 mg/day) or no MK4. All patients receive conventional therapy with percutaneous tumor ablation and/or transcatheter arterial embolization. The rate of portal vein invasion at 12 months of follow-up will be reduced in MK4 recipients as compared with controls.

Assay [3] deals with dysplastic nodule or early HCC. In words: Subject with HCV-related liver cirrhosis and dysplastic nodule or early HCC given MK4 and an ACE-I. Format: in vivo, human. The source says: Treatment with MK4 and an ACE-I normalizes AFP and AFP-L3 tumor markers and the hepatic nodule disappears. A subject with hepatitis C virus (HCV)-related liver cirrhosis is diagnosed with what was termed a “dysplastic nodule or early HCC.” The diagnosis is based on enhanced computed tomography (CE-CT) study and elevations of the tumor markers alpha-fetoprotein (AFP) and lectin-reactive alpha-fetal protein (AFP-L3).

The subject of the next assay is MMP-3 promoter. In words: MMP promoter/luciferase reporter assay in transfected HCC cells. The settings on record: HepG2 cells, luciferase reporter. Format: cell-based. The source says:
To investigate the mechanism of suppression of MMP-1, -3 and -7 expression by MK4, HCC cells will be transiently transfected with MMP-1, -3 and -7 promoter/luciferase reporter plasmids and then treated with MK4.
Background: Reporter assays use an easily measured gene product as a stand-in for the process of interest.

The mark [4] stands for this setting: after six weeks at 90 mg, additional twenty-two months at 45 mg daily once a day.
Where [5] appears, read: after 12 months at 90 mg/day, additional twenty-two months at 45 mg daily once a day.
Where [6] appears, read: after one-year combined treatment, MK-4 45 mg daily for additional 48 months, ACE-I halted.
Where [7] appears, read: oral MK4 90 mg daily with ACE-I (e.g., perindopril; 4 mg/day).

For `CC(C)=CCC/C(C)=C/CC/C(C)=C/CC/C(C)=C/CC1=C(C)C(=O)c2ccccc2C1=O` [MK4, menatetrenone], in the assay with MMP-7, the “MMP-7 mRNA expression induced by TPA” value is “dose-dependently inhibits” and the “MMP-7 promoter activity induced by TPA” value is reported as “dose-dependently suppresses”. For the same molecule, in the assay on MMP-3, the “MMP-3 mRNA expression induced by TPA” value is reported as “dose-dependently inhibits”, the “MMP-3 promoter activity induced by TPA” value was “dose-dependently suppresses” and the “MMP-3 protein expression induced by TPA” value is reported as “suppresses”. In the assay with MMP-1, the “MMP-1 mRNA expression induced by TPA” value was “dose-dependently inhibits”, the “MMP-1 promoter activity induced by TPA” value is “dose-dependently suppresses” and the “MMP-1 protein expression induced by TPA” value is recorded as “suppresses”. Besides, in the assay with hepatocellular carcinoma [1] (setting [4]), the recurrence entry was “no signs of recurrence are observed” and the tumor markers result is listed as “remain within the normal limits”. For the same molecule, the “diameter of the main tumor” value in the assay on hepatocellular carcinoma [1] (oral 90 mg daily once a day for six weeks) was “smaller”. The “rate of portal vein invasion” value in the assay on hepatocellular carcinoma [2] (12 months of follow-up, oral MK4 90 mg/day plus conventional therapy, versus controls) was “reduced”. For the same molecule, in the assay on hepatocellular carcinoma [2] (setting [5]), the recurrence entry was “no signs of recurrence are observed” and the tumor markers result is given as “remain within the normal limits”. For the same molecule, in assay [3] (setting [6]), the “serum level of AFP” value is on record as “remain in the normal range” and the “serum level of AFP-L3” value is reported as “remain in the normal range”. Besides, in assay [3] (setting [7]), the “serum level of AFP” value is on record as “gradually decrease” and the “serum level of AFP-L3” value is “gradually decrease”. The MMP-3 promoter activity entry in the assay with MMP-3 promoter is on record as “decrease MMP-3 promoter activity weakly”.
